Source: patent publication US12139454B2, “Dimethylcyclobutanone compounds, dimethylcyclobutane compounds, and processes for preparing the same” (Shin-Etsu Chemical Co., Ltd., priority 2019, dated 2024)

How the values were obtained:
Planococcus citri [1] = experiment: Field sticky-trap luring test with lures in a navel orange field; type: in vivo; conditions: inferred from lures A and C with high contents versus lure B with low contents
Description: The mixture of cis-(3-isopropenyl-2,2-dimethylcyclobutyl)methyl acetate, trans-(3-isopropenyl-2,2-dimethylcyclobutyl)methyl acetate, and (3-isopropylidene-2,2-dimethylcyclobutyl)methyl acetate obtained as in Example 35 was separated by 10% silver nitrate silica gel column chromatography (hexane:ethyl acetate=100:1). After the separation, they were mixed in a weight ratio of 100:43:4, 100:5:1, and 100:96:96. The mixtures were loaded each on a rubber cap made of isoprene each in an amount of 200 μg of cis-(3-isopropenyl-2,2-dimethylcyclobutyl)methyl acetate to prepare Lures A, B and C shown in the Table 1 below.
Lures A, B and C and the commercially available lure, Pherodis Planococcus citri (Koppert Biological Systems), were attached each to a sticky. Those and a sticky trap without a lure (blank) were placed in a navel orange field in Port Elizabeth, South Africa. Then, the number of lured and killed adult males of Planococcus citri (generic name: Citrus mealybug) in each trap was counted every other week. Each lure was changed every month.

Planococcus citri [2] = conditions: J. Econ. Entomol. 97, 361 (2004); cited from earlier work

| SMILES | lure-inhibitory activity (surmised from the lure comparison) (Planococcus citri [1]) | sex pheromone activity / effect on the attraction (Planococcus citri [2]) |
| --- | --- | --- |
| C=C(C)[C@H]1C[C@H](COC(C)=O)C1(C)C (relative stereo) [trans-(3-isopropenyl-2,2-dimethylcyclobutyl)methyl acetate] | lure-inhibitory activity | – |
| C=C(C)[C@@H]1C[C@H](COC(C)=O)C1(C)C [(1S,3S)-(3-isopropenyl-2,2-dimethylcyclobutyl) methyl acetate] | – | not a sex pheromone substance, but does not disturb the attraction |
| CC(=O)OCC1CC(=C(C)C)C1(C)C (stereo not drawn) [(3-isopropylidene-2,2-dimethylcyclobutyl)methyl acetate] | lure-inhibitory activity | – |
